# Source: PMC4278362 (Bioorganic & medicinal chemistry, 2014)
# Like-named read-outs stand apart in the source and are kept apart here.
# Experiments:
# B. anthracis Sterne [1] = test: microbe, parasite or virus in culture; assay type: cell-based, Bacillus anthracis; conditions: for MIC: Bacillus anthracis, read-out: MIC B. anthracis Sterne
# B anthracis DHFR = B anthracis DHFR (Bacillus anthracis, UniProt Q81R22); test: biochemical; conditions: Ki ± SEM B anthracis DHFR
# B. anthracis Sterne [2] = conditions: cited from earlier work
# Chain of B anthracis DHFR (Q81R22 1-162): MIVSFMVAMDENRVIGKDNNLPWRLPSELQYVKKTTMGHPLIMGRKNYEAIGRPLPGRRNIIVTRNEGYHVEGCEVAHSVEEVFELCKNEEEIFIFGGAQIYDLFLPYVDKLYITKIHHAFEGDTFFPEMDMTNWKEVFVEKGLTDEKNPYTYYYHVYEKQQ
structure (smiles),measurement,setting,value
"CCCC1c2ccccc2C=NN1C(=O)/C=C/c1cc(Cc2cnc(N)nc2N)cc(OC(=O)c2ccccc2)c1OC (racemic) [Compound 29, (±)-(E)-5-[(2,4-Diamino-5-pyrimidinyl)methyl]-2-methoxy-3-[3-oxo-3-(1-propyl-2(1H)-phthalazinyl)-1-propen-1-yl]phenyl benzoate]",MIC B. anthracis Sterne,B. anthracis Sterne [1],4 to 16 µg/mL
same,MIC,B. anthracis Sterne [1],2 to 16 µg/mL
"CCCC1c2ccccc2C=NN1C(=O)/C=C/c1cc(Cc2cnc(N)nc2N)cc(OCc2ccc(C(F)(F)F)cc2)c1OC (racemic) [Compound 34, (±)-(E)-3-{5-[(2,4-Diamino-5-pyrimidinyl)methyl]-2-methoxy-3-[(4-(trifluoromethyl)benzyl)oxy]phenyl}-1-(1-propyl-2(1H)-phthalazinyl)-2-propen-1-one]",Ki,B anthracis DHFR,> 2200 nM
"CCOc1cc(Cc2cnc(N)nc2N)cc(/C=C/C(=O)N2N=Cc3ccccc3C2C=C(C)C)c1OCC (racemic) [Compound 19b, (±)-(E)-3-{5-[(2,4-Diamino-5-pyrimidinyl)methyl]-2,3-diethoxyphenyl}-1-(1-isobutenyl-2(1H)-phthalazinyl)-2-propen-1-one]",MIC,B. anthracis Sterne [1],1 to 2 µg/mL
"COc1cc(Cc2cnc(N)nc2N)cc(OC)c1OC [TMP, Trimethoprim]",MIC B. anthracis Sterne,B. anthracis Sterne [2],> 2048 µg/mL
